Counter-ions that a name gives are not always drawn. Like-named read-outs stand apart in the source and are kept apart here.
How the values were obtained:
IL-23 (p19/p40) = experiment: IL23-p19 ELISA, dendritic cells (DC differentiated from human PBMC, IFNγ primed), LPS stimulated; type: cell-based; conditions: Dendritic cell, human PBMC-derived dendritic cells, 1 h compound pre-incubation, LPS 1 μg/ml 18 hours, 10 pt
Procedure: Compound Screening Using DC Cells
I. Differentiation of PBMC's to DC Cells:
After 2 hours, the media including floating cells was aspirated out carefully and 12 ml of fresh RPMI media (10% FBS) containing GMCSF (100 ng/ml) and IL4 (20 ng/ml) was added, and the flask was kept in a 37° C. incubator for 7 days.
After 3 days, fresh GMCSF (100 ng/ml) and IL4 (20 ng/ml) were added to the flask and the incubation continued. After 7 days, the fully differentiated cells were harvested by spinning down (1200 rpm/5 min) and aspirating the media. The cells were suspended in fresh RPMI media (10% FBS) containing 50 ng/ml IFNγ (1000 U/ml) and then plated (50K/well in 100 μl) onto a white clear bottom 96 well plate and left in a 37° C. incubator for 24 hours.
II. Addition of Compounds:
After 24 hours incubation, 100 μl of RPMI media was added containing 2× concentrated test compound per well to the above cell-culture media (final concentration becomes 1×) and the plates were pre-incubated for 1 hour at 37° C. before stimulating with LPS.
The mixture was shaken and incubated the plates at 37° C. for an additional 18 hours.
155 μl of the supernatant was harvested from each well carefully (without the tip touching the bottom of the well) and to the remaining 50 μl/well of the cell culture plate was added 50 μl of Cell Titer Glo reagent. The mixture was incubated for 1-2 minutes on a shaker and the plate was read for luminescence intensity to determine the compound cytotoxicity. The cell culture supernatant collected above was used to carry out IL23 ELISA (65 μl—Supernatant) and IL10 ELISA (90 μl—Supernatant) as described below.
Human IL-23 (p19/p40) ELISA Protocol (e-Biosciences)
To 10.5 ml PBS add 50 μl of anti-IL23 (p19) was added capture antibody (2.5 μg/ml). The mixture was mixed well and 100 μl of the coating solution was added to each well of the 96 well white plates from Pierce. The wells were covered and incubated overnight at 4° C.
The anti-IL23 (p19)-antibody-coated plates were washed 2× using TBST (use plate washer) and blocked using 200 μl of 0.5% Casein for 1.5-2 hours at room temperature with shaking.
Addition of Supernatant and Detection:
The plates were washed 2× using TBST and the supernatant was transferred (65 μl/well) to the above pre-blocked/IL23(p19)-antibody-coated 96 well plate, and incubated at room temperature for 1.5 hours with shaking.
The plates were washed 4× using TBST (plate washer) and 100 μl/well detection antibody solution prepared from 2 μl of biotin labeled anti-IL-12 (p40/p70) antibody in 11 ml 1% BSA/PBS solution (1-5000 dilution) was added. The plates were incubated for 1 hour with shaking at Room temperature.
Again, the plates were washed 4× with TBST and 100 μl of HRP labeled Streptavidin (R&D Systems) solution (10 μl/10 ml 1% BSA solution) was added, and the plates were incubated at room temperature for another 45 minutes with shaking.
After 45 minutes, the plates were washed with TBST 4× and 100 μl/well Super Signal ELISA Pico Chemiluminescent Substrate from Pierce (3.5 ml A+3.5 ml B+3.5 ml MQ water) was added. The plates were shaken for 1-2 minutes then read on a plate reader.

IL-23p19 = experiment: LPS Induced IL23p19 in THP-1 Cells (with IFNγ Primed) Assay; type: cell-based, human; conditions: IFNγ (50 ng/mL) primed, 1 hour compound pre-incubation, LPS 1 ug/mL 18 hours, 10 pt, read-out: IL23-p19 ELISA, THP1-IFNy, LPS, 10 pt EC50
Procedure: LPS Induced IL23p19 in THP-1 Cells (with IFNγ Primed) Assay
Method THP-1 Cells Stimulation:
On day 1, 50K/well THP-1 cells were seeded and primed with IFNγ (50 ng/mL) in 384-well plates for about 18 hours in RPMI media with 10% FBS. […] 50 μL/well 2× compound was added to 50 μL/well THP-1 cells (with IFNγ primed) in duplicate in 384 well tissue culture plates. […] Day 3, after stimulation for 18 hours at 37° C., 5% CO2, the assay plate was centrifuged and 70 μL/well supernatant was harvested. IL-23p19 protein in 70 μL/well of supernatant was measured by sandwich ELISA, and 25 μl/well Cell Titer Glo reagent was added to the remaining cells to measure compound toxicity.
Human IL-23p19 Sandwich ELISA:
Maxisorp immuno ELISA plates were pre-coated with 25 μL/well of anti-IL-23p19 capture antibody (2.5 ug/mL) in PBS overnight at room temperature. After washing with 1×PBST, the plates were blocked using 100 μL/well of 1% BSA in PBS for 2 hours at room temperature. The plates were washed three times with 1×PBST and 70 μL/well supernatant were added. The plates were incubated at room temperature for 2 hours with shaking and washed three times with 1×PBST. 25 μL/well of biotin labeled anti-IL-12(p40/p70) detection antibody (100 ng/mL) in PBS with 1% BSA was added and the plates were incubated at room temperature for 2 hours with shaking. After washing three times with 1×PBST, 25 μL/well of streptavidin-HRP (1:200) in PBS with 1% BSA was added and the plates were incubated at room temperature for 20 minutes with shaking. The plates were washed three times with 1×PBST and 25 μL/well of Super Signal ELISA Pico Chemiluminescent Substrate were added. The plates were read with a luminometer, and the chemiluminescence values were entered into Athena (Rigel) for curve fitting, EC50 calculation, and database storage.

[1] = Homo sapiens, THP-1, THP-1 cells

EC50 (IL-23p19; [1]) | also measured | SMILES
 | EC50 (IL-23 (p19/p40)): 8.56 µM | CC(C)Oc1cncc(-c2cccc(C(=O)Nc3cn(C)nc3-c3ccccn3)n2)c1 [Compound I-22, 5′-isopropoxy-N-(1-methyl-3-(pyridin-2-yl)-1H-pyrazol-4-yl)-[2,3′-bipyridine]-6-carboxamide]
 | EC50 (IL-23 (p19/p40)): 0.413 µM | COCCNc1cncc(-c2cccc(C(=O)Nc3cn(C)nc3-c3ccccn3)n2)c1 [Compound I-31, 5′-((2-methoxyethyl)amino)-N-(1-methyl-3-(pyridin-2-yl)-1H-pyrazol-4-yl)-[2,3′-bipyridine]-6-carboxamide]
 | EC50 (IL-23 (p19/p40)): 2.99 µM | Cn1cc(NC(=O)c2cccc(-c3cncc(C(N)=O)c3)n2)c(-c2ccccn2)n1 [Compound I-40, N6-(1-methyl-3-(pyridin-2-yl)-1H-pyrazol-4-yl)-[2,3′-bipyridine]-5′,6-dicarboxamide]
 | EC50 (IL-23 (p19/p40)): 9.16 µM | Cn1cc(NC(=O)c2cccc(-c3ccccc3)n2)c(-c2ccccn2)n1 [Compound I-48, N-(1-methyl-3-(pyridin-2-yl)-1H-pyrazol-4-yl)-6-phenylpicolinamide]
10.8 µM |  | Cn1cc(NC(=O)c2cncc(-c3cnn(CC4CC4)c3)c2)c(-c2ccccn2)n1 [Compound I-109, 5-(1-(cyclopropylmethyl)-1H-pyrazol-4-yl)-N-(1-methyl-3-(pyridin-2-yl)-1H-pyrazol-4-yl)nicotinamide]
130 µM |  | Cn1cc(NC(=O)c2nccc(Nc3cn(C)nc3-c3ccccn3)n2)c(-c2ccccn2)n1 [Compound I-118, N-(1-methyl-3-(pyridin-2-yl)-1H-pyrazol-4-yl)-4-((1-methyl-3-(pyridin-2-yl)-1H-pyrazol-4-yl)amino)pyrimidine-2-carboxamide]
3.92 µM |  | O=C(Nc1cn(C(CO)CO)nc1-c1ccccn1)c1cccc(-c2cccnc2)n1 [Compound I-125, N-(1-(1,3-dihydroxypropan-2-yl)-3-(pyridin-2-yl)-1H-pyrazol-4-yl)-[2,3′-bipyridine]-6-carboxamide]
3.35 µM |  | Cc1cncc(-c2cccc(C(=O)Nc3cn(C(CO)CO)nc3-c3ccccn3)n2)c1 [Compound I-126, N-(1-(1,3-dihydroxypropan-2-yl)-3-(pyridin-2-yl)-1H-pyrazol-4-yl)-5′-methyl-[2,3′-bipyridine]-6-carboxamide]
18.2 µM |  | O=C(Nc1cn(C(CO)CO)nc1-c1ccccn1)c1cccc(-c2cn[nH]c2)n1 [Compound I-127, N-(1-(1,3-dihydroxypropan-2-yl)-3-(pyridin-2-yl)-1H-pyrazol-4-yl)-6-(1H-pyrazol-4-yl)picolinamide]
24.2 µM |  | Cn1cc(NC(=O)c2nccc(Nc3cc[nH]n3)n2)c(-c2ccccn2)n1 [Compound I-128, 4-((1H-pyrazol-3-yl)amino)-N-(1-methyl-3-(pyridin-2-yl)-1H-pyrazol-4-yl)pyrimidine-2-carboxamide]
72.9 µM |  | Cc1n[nH]cc1Nc1ccnc(C(=O)Nc2cn(C)nc2-c2ccccn2)n1 [Compound I-129, 4-((3-methyl-1H-pyrazol-4-yl)amino)-N-(1-methyl-3-(pyridin-2-yl)-1H-pyrazol-4-yl)pyrimidine-2-carboxamide]
 | EC50 (IL-23 (p19/p40)): 1.65 µM | CC(C)Oc1cncc(-c2cccc(C(=O)Nc3cn(C4COC4)nc3-c3ccccn3)n2)c1 [Compound I-130, 5′-isopropoxy-N-(1-(oxetan-3-yl)-3-(pyridin-2-yl)-1H-pyrazol-4-yl)-[2,3′-bipyridine]-6-carboxamide]
41.7 µM |  | O=C(O)c1cncc(-c2cccc(C(=O)Nc3cn(C4COC4)nc3-c3ccccn3)n2)c1 [Compound I-135, 6-((1-(oxetan-3-yl)-3-(pyridin-2-yl)-1H-pyrazol-4-yl)carbamoyl)-[2,3′-bipyridine]-5′-carboxylic acid]
10.9 µM |  | COCCOCCn1cc(NC(=O)c2cccc(-c3ccncc3)n2)c(-c2ccccn2)n1 [Compound I-140, N-(1-(2-(2-methoxyethoxy)ethyl)-3-(pyridin-2-yl)-1H-pyrazol-4-yl)-[2,4′-bipyridine]-6-carboxamide formate]
11.5 µM |  | COCCOCCn1cc(NC(=O)c2cccc(-c3ccncc3F)n2)c(-c2ccccn2)n1 [Compound I-144, 3′-fluoro-N-(1-(2-(2-methoxyethoxy)ethyl)-3-(pyridin-2-yl)-1H-pyrazol-4-yl)-[2,4′-bipyridine]-6-carboxamide formate]
56.9 µM |  | COCCOCCn1cc(NC(=O)c2cccc(-c3ccncc3C)n2)c(-c2ccccn2)n1 [Compound I-145, N-(1-(2-(2-methoxyethoxy)ethyl)-3-(pyridin-2-yl)-1H-pyrazol-4-yl)-3′-methyl-[2,4′-bipyridine]-6-carboxamide formate]
 | EC50 (IL-23 (p19/p40)): 10.9 µM | COCCOCCn1cc(NC(=O)c2cccc(Nc3cc(C)ncc3C)n2)c(-c2ccccn2)n1 [Compound I-157, 6-((2,5-dimethylpyridin-4-yl)amino)-N-(1-(2-(2-methoxyethoxy)ethyl)-3-(pyridin-2-yl)-1H-pyrazol-4-yl)picolinamide formate]
14.7 µM |  | Cn1cc(NC(=O)c2cccc(-c3ccnc(NCC4CC4)c3)n2)c(-c2ccccn2)n1 [Compound I-159, 2′-((cyclopropylmethyl)amino)-N-(1-methyl-3-(pyridin-2-yl)-1H-pyrazol-4-yl)-[2,4′-bipyridine]-6-carboxamide formate]
150 µM |  | Cn1cc(NC(=O)c2cccc(-c3ccncc3)n2)c(-c2ccccn2)n1 [Compound I-160, N-(1-methyl-3-(pyridin-2-yl)-1H-pyrazol-4-yl)-[2,4′-bipyridine]-6-carboxamide 2,2,2-trifluoroacetate]
1.53 µM |  | O=C(Nc1cn(C2CCOCC2)nc1-c1ccccn1)c1cccc(-c2cn[nH]c2)n1 [Compound I-165, 6-(1H-pyrazol-4-yl)-N-(3-(pyridin-2-yl)-1-(tetrahydro-2H-pyran-4-yl)-1H-pyrazol-4-yl)picolinamide]
0.541 µM |  | COCCn1cc(NC(=O)c2cccc(-c3cncc(C)c3)n2)c(-c2ccccn2)n1 [Compound I-168, N-(1-(2-methoxyethyl)-3-(pyridin-2-yl)-1H-pyrazol-4-yl)-5′-methyl-[2,3′-bipyridine]-6-carboxamide]
 | EC50 (IL-23p19; THP-1 cells, dihydrochloride): 27.9 µM | Cc1cncc(-c2cccc(C(=O)Nc3cn(C)nc3-c3ccc(N4CCOCC4)cn3)n2)c1 [Compound I-176, 5′-methyl-N-(1-methyl-3-(5-morpholinopyridin-2-yl)-1H-pyrazol-4-yl)-[2,3′-bipyridine]-6-carboxamide dihydrochloride]

Reference: patent US10947216B2, “Amide compounds and method for making and using” (Rigel Pharmaceuticals, Inc., priority 2016, dated 2021)
